The IC50 is the concentration that gives 50% inhibition. The term EC50 denotes the concentration giving half of the maximal effect. The MIC is the least concentration at which growth counts as inhibited. A word on the GI50: it is the concentration at which growth is held to half of that of the control. For orientation: inhibition means how much of the control response was suppressed.

We go through 19 compounds from ChEMBL document CHEMBL4400515, “Anti-parasitic activity of polyether ionophores” (Eur J Med Chem, 2019).

≈ marks a conversion by molar mass, not a printed value.

For one assay, the system named is Plasmodium berghei. Kind of assay: Antimalarial activity against Plasmodium berghei infected in po dosed mouse. Type of assay: functional.
Another assay concerns Plasmodium chabaudi. Kind of assay: Antiplasmodial activity against Plasmodium chabaudi infected in Swiss mouse assessed as reduction in parasitemia administered twice daily via ip for 4 days starting from 1.5 hrs post infection. Format: functional.
For assay [1], the system named is Plasmodium falciparum. Kind of assay: Antimalarial activity against Plasmodium falciparum Nigerian infected in human red blood cells after 48 hrs by [3H]-hypoxanthine incorporation assay. Format: functional, organism-based.
In the next assay the test system is Eimeria tenella. Kind of assay: Coccidiostat activity against Eimeria tenella infected in po dosed chicken. Format: functional.
The test system of assay [2] is Leishmania donovani. Briefly: Antileishmanial activity against Leishmania donovani MHOM/SD/00/1S-2D promastigotes by luminescence assay. Type of assay: functional, organism-based.
In assay [3] the test system is Plasmodium vinckei petteri. Briefly: Antimalarial activity against Plasmodium vinckei petteri infected in IOPS OF1 mouse assessed as reduction in parasitemia administered once daily via sc for 4 days. Format: functional. Particulars: 96 h.
For assay [4], the system named is Trypanosoma brucei. Kind of assay: Antitrypanosomal activity against bloodstream form of Trypanosoma brucei clone 427-221a measured after 72 hrs by resazurin dye based assay. Type of assay: functional. On the technique in general: Alamar Blue is a resazurin reagent that responds to reducing activity.
Assay [5] relates to Trypanosoma brucei. Briefly: Antitrypanosomal activity against bloodstream form of Trypanosoma brucei clone 427-221a measured after 72 hrs by microscopic analysis. Format: functional.
Assay [6] relates to Cryptosporidium parvum. Briefly: Antiparasitic activity against Cryptosporidium parvum infected in CB.17 SCID mouse assessed as faecal parasite load at 3 mg/kg, administered once daily for 3 days by OW50-FITC staining based flow cytometry relative to control. Type of assay: functional.
In assay [7] the test system is Plasmodium falciparum. Briefly: Antiplasmodial activity against trophozoite stage of Plasmodium falciparum 3D7 measured after 48 hrs by [3H]-hypoxanthine incorporation assay. Type of assay: functional, organism-based.
Assay [8] has as its system Leishmania major. Briefly: Antileishmanial activity against promastigote stage of Leishmania major MHOM/IL/81/Friedlin transformed from lymph node cultures of infected Balb/c mouse measured after 48 hrs by luminometry. Type of assay: functional, organism-based.
Assay [9] has as its system Cryptosporidium parvum. Briefly: Antiparasitic activity against Cryptosporidium parvum GP-60 subtype 2a A15G2RI infected in human HCT8 cells assessed as inhibition of parasite development at 0.144 uM measured 27 hrs post infection by qPCR analysis. Particulars: HCT-8, 27 h. Format: functional. (In general: In qPCR the cycle at which signal appears reflects the starting amount.)

The next assay has as its system Toxoplasma gondii. Briefly: Antiparasitic activity against Toxoplasma gondii infected in Scottish Blackface ewes assessed as mortality at 16.8 to 27.9 mg administered daily for 10 days prior to parasitic infection (reference value: 55.2%). Type of assay: functional.
Assay [10] deals with Leishmania major. Kind of assay: Antileishmanial activity against […] measured after 48 hrs by luminometry. Format: functional, organism-based.
In assay [11] the test system is Leishmania donovani. Kind of assay: Antileishmanial activity against Leishmania donovani MHOM/SD/001S-2D promastigotes transformed from splenic cultures of infected Chester Beatty hamster measured after 48 hrs by CellTiter-Glo luminescent cell viability assay. Type of assay: functional, organism-based. In general terms: In ATP-based viability assays light output follows the ATP content of the culture.

Assay [12] deals with Leishmania donovani. Briefly: Antileishmanial activity against Leishmania donovani MHOM/SD/001S-2D […] measured after 48 hrs by CellTiter-Glo luminescent cell viability assay. Type of assay: functional, organism-based.
Assay [13] has as its system Plasmodium vinckei petteri. Briefly: Antimalarial activity against Plasmodium vinckei petteri infected in IOPS OF1 mouse assessed as reduction in parasitemia at 10 mg/kg, sc administered once daily for 4 days relative to control. Format: functional. Further details: scale not given: the % may be the effect or the level left.
Another assay deals with Schistosoma mansoni. Kind of assay: Antiparasitic activity against Schistosoma mansoni Puerto Rico PR-1 after 48 hrs by fluorescence based lactate release assay. Type of assay: functional, organism-based. Particulars: Puerto Rico PR-1, 48 h.

`CC[C@@]1([C@@H]2O[C@@H]([C@H]3O[C@@](O)(COC(=O)Nc4ccc([N+](=O)[O-])cc4)[C@H](C)C[C@@H]3C)C[C@@H]2C)CC[C@H]([C@]2(C)CC[C@]3(C[C@H](O)[C@@H](C)[C@@H]([C@@H](C)[C@@H](OC)[C@@H](C)C(=O)[O-])O3)O2)O1.[Na+]` had an ED50 in the assay with Plasmodium berghei of 5 mg/kg. With `CC[C@@H](C(=O)[C@@H](C)[C@@H](O)[C@H](C)CCc1c(Br)cc(C)c(O)c1C(=O)[O-])[C@H]1O[C@](CC)([C@H]2CC[C@](O)(CC)[C@H](C)O2)C[C@@H]1C.[Na+]`, the ED50 in the assay with Plasmodium chabaudi turned out to be 1.4 mg/kg. Also, in the assay with Plasmodium falciparum [1], the 50% inhibitory concentration (IC50) amounted to 0.069 µg/mL.

Turning to `CC[C@@]1([C@@H]2O[C@@H]([C@H]3O[C@@](O)(COC(=O)NCCc4ccccc4)[C@H](C)C[C@@H]3C)C[C@@H]2C)CC[C@H]([C@]2(C)CC[C@]3(C[C@H](O)[C@@H](C)[C@@H]([C@@H](C)[C@@H](OC)[C@@H](C)C(=O)[O-])O3)O2)O1.[Na+]`, the ED50 in the assay with Eimeria tenella is 50 ppm.

As to `CC[C@@]1([C@@H]2O[C@@H]([C@H]3O[C@@](O)(COC(=O)Nc4ccccc4)[C@H](C)C[C@@H]3C)C[C@@H]2C)CC[C@H]([C@]2(C)CC[C@]3(C[C@H](O)[C@@H](C)[C@@H]([C@@H](C)[C@@H](OC)[C@@H](C)C(=O)[O-])O3)O2)O1.[Na+]`, the ED50 in the assay with Plasmodium berghei came out at 4 mg/kg. In the assay with Leishmania donovani [2], `CC[C@@H](C(=O)O)[C@@H]1O[C@@H]([C@@H](C)[C@H](O)[C@H](C)C(=O)[C@H](CC)[C@H]2O[C@]3(C=C[C@@H](O)[C@]4(CC[C@@](C)([C@H]5CC[C@](O)(CC)[C@H](C)O5)O4)O3)[C@H](C)C[C@@H]2C)[C@@H](C)C[C@@H]1C` [NARASIN] came in with an EC50 of 2000 nM.

With `CO[C@@H]1C[C@@H](C[C@H]2CC[C@H](C)[C@H]([C@@H](C)C(=O)O)O2)O[C@]2(O[C@](C)([C@H]3CC[C@@](C)([C@@H]4O[C@@H]([C@H]5O[C@@](O)(CO)[C@H](C)C[C@@H]5C)C[C@@H]4C)O3)C[C@H]2C)[C@@H]1C` [NIGERICIN], in [3], the ED50 was 1.8 mg/kg and the ED90 was found to be 4.6 mg/kg. In the assay on Plasmodium berghei, `CC[C@@]1([C@@H]2O[C@@H]([C@H]3O[C@@](O)(COC(=O)Nc4ccc(I)cc4)[C@H](C)C[C@@H]3C)C[C@@H]2C)CC[C@H]([C@]2(C)CC[C@]3(C[C@H](O)[C@@H](C)[C@@H]([C@@H](C)[C@@H](OC)[C@@H](C)C(=O)[O-])O3)O2)O1.[Na+]` came in with an ED50 of 5 mg/kg. In the assay with Plasmodium berghei, `CC[C@@]1([C@@H]2O[C@@H]([C@H]3O[C@@](O)(COC(=O)Nc4ccc(Br)cc4)[C@H](C)C[C@@H]3C)C[C@@H]2C)CC[C@H]([C@]2(C)CC[C@]3(C[C@H](O)[C@@H](C)[C@@H]([C@@H](C)[C@@H](OC)[C@@H](C)C(=O)[O-])O3)O2)O1.[Na+]` showed an ED50 of 16 mg/kg. Same read-out and setting: as for `CC[C@@]1([C@@H]2O[C@@H]([C@H]3O[C@@](O)(COS(=O)(=O)c4ccc(C)cc4)[C@H](C)C[C@@H]3C)C[C@@H]2C)CC[C@H]([C@]2(C)CC[C@]3(C[C@H](O)[C@@H](C)[C@@H]([C@@H](C)[C@@H](OC)[C@@H](C)C(=O)O)O3)O2)O1`, the figure is 1.25 mg/kg. For the compound `CCCCNC(=O)[C@H](CC)[C@H]1CC[C@H](C)[C@H]([C@@H](C)[C@H](O)[C@H](C)C(=O)[C@H](CC)[C@H]2O[C@]3(C=C[C@@H](O)[C@]4(CC[C@@](C)([C@H]5CC[C@](O)(CC)[C@H](C)O5)O4)O3)[C@H](C)C[C@@H]2C)O1`, the lowest concentration to inhibit growth in the assay on Trypanosoma brucei [4] (MIC) was 0.1 µM (≈ 0.0806 µg/mL). The compound further registered a GI50 in the assay on Trypanosoma brucei [5] of 40 nM. Consider `CC[C@@]1([C@@H]2O[C@@H]([C@H]3O[C@@]4(COC(=O)O4)[C@H](C)C[C@@H]3C)C[C@@H]2C)CC[C@H]([C@]2(C)CC[C@]3(C[C@H](O)[C@@H](C)[C@@H]([C@@H](C)[C@@H](OC)[C@@H](C)C(=O)O)O3)O2)O1`, for which the ED50 in the assay on Plasmodium berghei stood at 0.75 mg/kg. On to `CO[C@@H]1[C@@H](OC)[C@H](C)[C@@](O)(CC(=O)O)O[C@H]1[C@H](C)[C@H]1O[C@@]2(CC[C@@](C)([C@H]3CC[C@@](C)([C@@H]4O[C@@H]([C@H]5O[C@](C)(O)[C@H](C)C[C@@H]5C)C[C@@H]4O[C@@H]4C[C@@H](OC)[C@@H](OC)[C@H](C)O4)O3)O2)C[C@H](O)[C@H]1C`, for which, in the assay with Cryptosporidium parvum [6], the Activity turned out to be 96%. For the same compound, in the assay with Plasmodium falciparum [7], the EC50 came out at 0.44 nM. With `CC[C@@]1([C@@H]2O[C@@H]([C@H]3O[C@@](O)(COC(=O)Nc4ccc(C)cc4)[C@H](C)C[C@@H]3C)C[C@@H]2C)CC[C@H]([C@]2(C)CC[C@]3(C[C@H](O)[C@@H](C)[C@@H]([C@@H](C)[C@@H](OC)[C@@H](C)C(=O)[O-])O3)O2)O1.[Na+]`, the ED50 in the assay on Eimeria tenella came to 70 ppm.

For `CC[C@@]1([C@@H]2O[C@@H]([C@H]3O[C@@](O)(COC(=O)Nc4ccc(Oc5ccccc5)cc4)[C@H](C)C[C@@H]3C)C[C@@H]2C)CC[C@H]([C@]2(C)CC[C@]3(C[C@H](O)[C@@H](C)[C@@H]([C@@H](C)[C@@H](OC)[C@@H](C)C(=O)[O-])O3)O2)O1.[Na+]`, in the assay with Plasmodium berghei, the ED50 was found to be 8 mg/kg. On the same count and under the same terms, for `CC[C@@]1([C@@H]2O[C@@H]([C@H]3O[C@@](O)(COC(=O)Nc4ccc(Cl)cc4)[C@H](C)C[C@@H]3C)C[C@@H]2C)CC[C@H]([C@]2(C)CC[C@]3(C[C@H](O)[C@@H](C)[C@@H]([C@@H](C)[C@@H](OC)[C@@H](C)C(=O)[O-])O3)O2)O1.[Na+]` the value was 2 mg/kg. Consider `CC[C@@]1([C@@H]2O[C@@H]([C@H]3O[C@@](O)(CO)[C@H](C)C[C@@H]3C)C[C@@H]2C)CC[C@H]([C@]2(C)CC[C@]3(C[C@H](O)[C@@H](C)[C@@H]([C@@H](C)[C@@H](OC)[C@@H](C)C(=O)O)O3)O2)O1`, for which the EC50 with Leishmania major [8] turned out to be 90 nM; with Leishmania major [10] it was 380 nM; with Leishmania donovani [11], 850 nM; in the assay on Leishmania donovani [12], 230 nM. For the same compound, in the assay on Cryptosporidium parvum [9], the inhibition at 0.144 µM is 98%. In addition, the figures for the Activity (with Toxoplasma gondii; in assay [13]) were 16.7% and 100%, respectively. In addition, the ED50 in [3] is 1.1 mg/kg. Moreover, in assay [3], the ED90 worked out at 3.5 mg/kg. In the assay on Trypanosoma brucei [4], `CC[C@@H](C(=O)[C@@H](C)[C@@H](O)[C@H](C)[C@@H]1O[C@@H]([C@@H](CC)C(=O)OCC(F)(F)F)CC[C@@H]1C)[C@H]1O[C@]2(C=C[C@@H](O)[C@]3(CC[C@@](C)([C@H]4CC[C@](O)(CC)[C@H](C)O4)O3)O2)[C@H](C)C[C@@H]1C` registered an MIC of 0.1 to 1 µM (≈ 0.0833 to 0.833 µg/mL). This compound showed a 50% growth inhibitory concentration (GI50) with Trypanosoma brucei [5] of 57 nM. In the assay with Schistosoma mansoni, `CC[C@@H](C(=O)[C@@H](C)[C@@H](O)[C@H](C)[C@@H]1O[C@@H]([C@@H](CC)C(=O)O)CC[C@@H]1C)[C@H]1O[C@]2(C=C[C@@H](O)[C@]3(CC[C@@](C)([C@H]4CC[C@](O)(CC)[C@H](C)O4)O3)O2)[C@H](C)C[C@@H]1C` [SALINOMYCIN] displayed an IC50 of 32600 nM. In the assay with Leishmania donovani [2], this compound came in with an EC50 of 4000 nM.

Compound `CC[C@@]1([C@@H]2O[C@@H]([C@H]3O[C@@](O)(COC(=O)Nc4ccc(F)cc4)[C@H](C)C[C@@H]3C)C[C@@H]2C)CC[C@H]([C@]2(C)CC[C@]3(C[C@H](O)[C@@H](C)[C@@H]([C@@H](C)[C@@H](OC)[C@@H](C)C(=O)[O-])O3)O2)O1.[Na+]` registered an ED50 in the assay on Eimeria tenella of 70 ppm.
